{"source": "paper PMC10239507", "about": "“Development of allosteric and selective CDK2 inhibitors for contraception with negative cooperativity to cyclin binding” (Nature Communications, 2023)", "test_in_all_cases": "biochemical", "key": {"[1]": {"target": "T1, 371 kinases (kinase named in each endpoint) (Homo sapiens, UniProt O15146)", "T1 construct": "purchased Reaction Biology", "conditions": "MUSK"}, "[2]": {"target": "T2, 371 kinases (kinase named in each endpoint) (Homo sapiens, UniProt O75116)", "T2 construct": "purchased Reaction Biology", "T2 sequence (O75116 whole entry)": "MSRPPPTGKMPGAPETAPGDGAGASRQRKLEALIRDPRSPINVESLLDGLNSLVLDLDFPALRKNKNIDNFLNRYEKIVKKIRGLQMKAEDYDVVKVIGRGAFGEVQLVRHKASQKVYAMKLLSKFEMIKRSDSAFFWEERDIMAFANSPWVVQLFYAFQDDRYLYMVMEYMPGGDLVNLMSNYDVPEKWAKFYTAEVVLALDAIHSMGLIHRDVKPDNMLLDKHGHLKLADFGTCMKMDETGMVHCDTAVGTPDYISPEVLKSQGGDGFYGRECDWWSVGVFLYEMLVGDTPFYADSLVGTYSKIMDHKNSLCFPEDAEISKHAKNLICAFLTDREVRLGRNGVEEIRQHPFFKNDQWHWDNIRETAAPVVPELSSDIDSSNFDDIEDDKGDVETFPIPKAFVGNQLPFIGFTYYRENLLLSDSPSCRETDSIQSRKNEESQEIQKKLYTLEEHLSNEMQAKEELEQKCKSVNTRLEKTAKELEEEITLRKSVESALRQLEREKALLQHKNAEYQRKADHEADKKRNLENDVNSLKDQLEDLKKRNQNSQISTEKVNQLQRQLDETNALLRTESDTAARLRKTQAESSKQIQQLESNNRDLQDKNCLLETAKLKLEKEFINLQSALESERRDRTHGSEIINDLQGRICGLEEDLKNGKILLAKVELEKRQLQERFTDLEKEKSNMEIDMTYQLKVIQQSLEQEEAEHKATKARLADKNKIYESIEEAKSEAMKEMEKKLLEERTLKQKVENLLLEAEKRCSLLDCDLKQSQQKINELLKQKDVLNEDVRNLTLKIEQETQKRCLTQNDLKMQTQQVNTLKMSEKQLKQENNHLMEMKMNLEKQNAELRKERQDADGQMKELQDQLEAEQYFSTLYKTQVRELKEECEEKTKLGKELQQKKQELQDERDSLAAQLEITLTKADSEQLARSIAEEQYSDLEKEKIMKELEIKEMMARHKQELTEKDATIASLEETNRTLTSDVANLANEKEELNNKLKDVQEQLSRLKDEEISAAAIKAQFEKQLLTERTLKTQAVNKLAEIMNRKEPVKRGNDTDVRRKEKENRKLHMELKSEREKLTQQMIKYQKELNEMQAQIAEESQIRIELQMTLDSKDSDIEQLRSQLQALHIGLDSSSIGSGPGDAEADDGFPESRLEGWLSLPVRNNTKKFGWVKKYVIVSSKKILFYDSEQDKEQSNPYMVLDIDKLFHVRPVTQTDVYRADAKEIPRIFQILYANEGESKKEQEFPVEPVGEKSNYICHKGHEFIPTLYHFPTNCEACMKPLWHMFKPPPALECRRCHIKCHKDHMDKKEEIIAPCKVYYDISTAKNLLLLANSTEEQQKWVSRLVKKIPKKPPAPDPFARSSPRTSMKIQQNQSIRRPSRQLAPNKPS", "conditions": "ROCK2"}, "[3]": {"target": "T3, 371 kinases (kinase named in each endpoint) (Homo sapiens, UniProt O94804)", "T3 construct": "purchased Reaction Biology", "conditions": "LOK/STK10"}, "[4]": {"target": "T4, 371 kinases (kinase named in each endpoint) (Homo sapiens, UniProt P00519)", "T4 construct": "purchased Reaction Biology", "conditions": "ABL1"}, "[5]": {"target": "T5, 371 kinases (kinase named in each endpoint) (Homo sapiens, UniProt P06241)", "T5 construct": "purchased Reaction Biology", "conditions": "FYN"}, "[6]": {"target": "T6, 371 kinases (kinase named in each endpoint) (Homo sapiens, UniProt P15056)", "T6 construct": "purchased Reaction Biology", "conditions": "BRAF"}, "[7]": {"target": "T7, 371 kinases (kinase named in each endpoint) (Homo sapiens, UniProt P22694)", "T7 construct": "purchased Reaction Biology", "conditions": "PKACB"}, "[8]": {"target": "T8, 371 kinases (kinase named in each endpoint) (Homo sapiens, UniProt P28482)", "T8 construct": "purchased Reaction Biology", "conditions": "ERK2/MAPK1"}, "[9]": {"target": "T9, 371 kinases (kinase named in each endpoint) (Homo sapiens, UniProt P42680)", "T9 construct": "purchased Reaction Biology", "conditions": "TEC"}, "[10]": {"target": "T10, 371 kinases (kinase named in each endpoint) (Homo sapiens, UniProt P43403)", "T10 construct": "purchased Reaction Biology", "conditions": "ZAP70"}, "[11]": {"target": "T11, 371 kinases (kinase named in each endpoint) (Homo sapiens, UniProt P51451)", "T11 construct": "purchased Reaction Biology", "T11 sequence (P51451 whole entry)": "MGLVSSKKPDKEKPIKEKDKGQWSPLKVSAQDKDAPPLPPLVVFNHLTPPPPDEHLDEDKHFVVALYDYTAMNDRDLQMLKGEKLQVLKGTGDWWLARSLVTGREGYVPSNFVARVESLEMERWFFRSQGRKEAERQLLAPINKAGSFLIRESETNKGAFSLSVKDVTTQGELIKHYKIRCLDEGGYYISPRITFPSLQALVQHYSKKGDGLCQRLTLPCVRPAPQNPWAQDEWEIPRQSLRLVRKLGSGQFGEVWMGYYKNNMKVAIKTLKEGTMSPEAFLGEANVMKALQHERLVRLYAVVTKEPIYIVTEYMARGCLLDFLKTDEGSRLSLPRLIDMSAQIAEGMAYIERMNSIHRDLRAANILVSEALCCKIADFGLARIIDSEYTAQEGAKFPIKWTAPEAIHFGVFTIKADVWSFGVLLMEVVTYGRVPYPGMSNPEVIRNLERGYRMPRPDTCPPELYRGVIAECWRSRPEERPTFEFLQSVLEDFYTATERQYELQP", "conditions": "BLK"}, "[12]": {"target": "T12, 371 kinases (kinase named in each endpoint) (Homo sapiens, UniProt P52333)", "T12 construct": "purchased Reaction Biology", "T12 sequence (P52333 whole entry)": "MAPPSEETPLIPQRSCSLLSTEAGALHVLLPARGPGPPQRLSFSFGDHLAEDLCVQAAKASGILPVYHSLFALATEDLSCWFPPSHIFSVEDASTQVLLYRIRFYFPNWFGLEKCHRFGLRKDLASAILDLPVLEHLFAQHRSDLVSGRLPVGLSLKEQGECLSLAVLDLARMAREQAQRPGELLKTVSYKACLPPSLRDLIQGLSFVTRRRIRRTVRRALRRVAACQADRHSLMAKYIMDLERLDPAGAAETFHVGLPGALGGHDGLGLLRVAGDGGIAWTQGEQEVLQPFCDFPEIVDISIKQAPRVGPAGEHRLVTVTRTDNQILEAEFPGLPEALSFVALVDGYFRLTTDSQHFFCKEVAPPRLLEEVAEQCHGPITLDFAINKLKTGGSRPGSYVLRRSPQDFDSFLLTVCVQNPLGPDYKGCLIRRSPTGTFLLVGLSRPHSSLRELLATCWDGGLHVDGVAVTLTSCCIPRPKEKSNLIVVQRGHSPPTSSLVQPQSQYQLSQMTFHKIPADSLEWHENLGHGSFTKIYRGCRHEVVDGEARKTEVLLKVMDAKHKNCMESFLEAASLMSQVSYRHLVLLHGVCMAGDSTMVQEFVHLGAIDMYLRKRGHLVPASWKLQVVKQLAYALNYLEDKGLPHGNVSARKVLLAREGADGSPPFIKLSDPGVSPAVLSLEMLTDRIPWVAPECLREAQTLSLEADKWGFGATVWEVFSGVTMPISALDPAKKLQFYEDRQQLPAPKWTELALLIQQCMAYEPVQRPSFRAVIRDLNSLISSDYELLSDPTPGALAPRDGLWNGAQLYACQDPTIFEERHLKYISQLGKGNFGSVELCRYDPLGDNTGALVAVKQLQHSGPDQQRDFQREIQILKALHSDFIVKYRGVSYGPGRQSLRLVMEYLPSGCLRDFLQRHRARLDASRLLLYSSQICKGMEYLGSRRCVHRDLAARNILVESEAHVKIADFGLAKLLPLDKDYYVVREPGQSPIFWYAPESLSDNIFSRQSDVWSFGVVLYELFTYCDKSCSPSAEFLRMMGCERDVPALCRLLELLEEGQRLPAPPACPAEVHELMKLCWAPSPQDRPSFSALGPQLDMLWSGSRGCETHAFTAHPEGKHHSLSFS", "conditions": "JAK3"}, "[13]": {"target": "T13, 371 kinases (kinase named in each endpoint) (Homo sapiens, UniProt P54760)", "T13 construct": "purchased Reaction Biology", "conditions": "EPHB4"}, "[14]": {"target": "T14, 371 kinases (kinase named in each endpoint) (Homo sapiens, UniProt P68400)", "T14 construct": "purchased Reaction Biology", "conditions": "CK2A"}, "[15]": {"target": "T15, 371 kinases (kinase named in each endpoint) (Homo sapiens, UniProt Q04759)", "T15 construct": "purchased Reaction Biology", "conditions": "PKCTHETA"}, "[16]": {"target": "T16, 371 kinases (kinase named in each endpoint) (Homo sapiens, UniProt Q07912)", "T16 construct": "purchased Reaction Biology", "conditions": "ACK1"}, "[17]": {"target": "T17, 371 kinases (kinase named in each endpoint) (Homo sapiens, UniProt Q13164)", "T17 construct": "purchased Reaction Biology", "conditions": "ERK5/MAPK7"}, "[18]": {"target": "T18, 371 kinases (kinase named in each endpoint) (Homo sapiens, UniProt Q13188)", "T18 construct": "purchased Reaction Biology", "T18 sequence (Q13188 whole entry)": "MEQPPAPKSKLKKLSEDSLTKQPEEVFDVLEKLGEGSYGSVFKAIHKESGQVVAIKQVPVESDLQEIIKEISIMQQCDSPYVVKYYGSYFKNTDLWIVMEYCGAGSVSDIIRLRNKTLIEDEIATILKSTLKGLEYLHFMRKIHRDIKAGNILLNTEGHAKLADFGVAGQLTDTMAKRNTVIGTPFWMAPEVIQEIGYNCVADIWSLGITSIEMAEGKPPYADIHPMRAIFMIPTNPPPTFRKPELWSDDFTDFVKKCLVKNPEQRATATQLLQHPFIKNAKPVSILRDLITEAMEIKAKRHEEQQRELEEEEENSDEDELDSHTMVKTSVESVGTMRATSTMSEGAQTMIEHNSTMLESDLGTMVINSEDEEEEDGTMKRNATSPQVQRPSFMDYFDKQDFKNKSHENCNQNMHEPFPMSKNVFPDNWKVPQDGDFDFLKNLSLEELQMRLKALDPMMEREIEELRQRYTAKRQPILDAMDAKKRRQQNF", "conditions": "MST2/STK3"}, "[19]": {"target": "T19, 371 kinases (kinase named in each endpoint) (Homo sapiens, UniProt Q13554)", "T19 construct": "purchased Reaction Biology", "conditions": "CAMK2B"}, "[20]": {"target": "T20, 371 kinases (kinase named in each endpoint) (Homo sapiens, UniProt Q15208)", "T20 construct": "purchased Reaction Biology", "conditions": "STK38/NDR1"}, "[21]": {"target": "T21, 371 kinases (kinase named in each endpoint) (Homo sapiens, UniProt Q15418)", "T21 construct": "purchased Reaction Biology", "conditions": "RSK1"}, "[22]": {"target": "T22, 371 kinases (kinase named in each endpoint) (Homo sapiens, UniProt Q16513)", "T22 construct": "purchased Reaction Biology", "conditions": "PKN2/PRK2"}, "[23]": {"target": "T23, 371 kinases (kinase named in each endpoint) (Homo sapiens, UniProt Q86Z02)", "T23 construct": "purchased Reaction Biology", "conditions": "HIPK1"}, "[24]": {"target": "T24, 371 kinases (kinase named in each endpoint) (Homo sapiens, UniProt Q8TD19)", "T24 construct": "purchased Reaction Biology", "conditions": "NEK9"}, "[25]": {"target": "T25, 371 kinases (kinase named in each endpoint) (Homo sapiens, UniProt Q96GD4)", "T25 construct": "purchased Reaction Biology", "conditions": "AURORA B"}, "[26]": {"target": "T26, 371 kinases (kinase named in each endpoint) (Homo sapiens, UniProt Q96KB5)", "T26 construct": "purchased Reaction Biology", "conditions": "PBK/TOPK"}, "[27]": {"target": "T27, 371 kinases (kinase named in each endpoint) (Homo sapiens, UniProt Q96PF2)", "T27 construct": "purchased Reaction Biology", "T27 sequence (Q96PF2 whole entry)": "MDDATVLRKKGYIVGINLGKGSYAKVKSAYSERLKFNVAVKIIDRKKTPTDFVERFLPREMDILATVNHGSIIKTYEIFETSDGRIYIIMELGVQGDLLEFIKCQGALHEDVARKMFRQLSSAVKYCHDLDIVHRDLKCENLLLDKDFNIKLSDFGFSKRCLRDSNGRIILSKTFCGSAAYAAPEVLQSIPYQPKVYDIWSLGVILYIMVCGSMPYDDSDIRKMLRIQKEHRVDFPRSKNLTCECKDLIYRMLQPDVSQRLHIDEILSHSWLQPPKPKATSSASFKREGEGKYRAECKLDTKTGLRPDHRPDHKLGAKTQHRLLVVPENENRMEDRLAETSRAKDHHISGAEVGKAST", "conditions": "TSSK2"}, "[28]": {"target": "T28, 371 kinases (kinase named in each endpoint) (Homo sapiens, UniProt Q96PN8)", "T28 construct": "purchased Reaction Biology", "conditions": "TSSK3/STK22C"}, "[29]": {"target": "T29, 371 kinases (kinase named in each endpoint) (Homo sapiens, UniProt Q96RG2)", "T29 construct": "purchased Reaction Biology", "conditions": "PASK"}, "[30]": {"target": "T30, 371 kinases (kinase named in each endpoint) (Homo sapiens, UniProt Q9BZL6)", "T30 construct": "purchased Reaction Biology", "conditions": "PKD2/PRKD2"}, "[31]": {"target": "T31, 371 kinases (kinase named in each endpoint) (Homo sapiens, UniProt Q9H2K8)", "T31 construct": "purchased Reaction Biology", "conditions": "TAOK3/JIK"}, "[32]": {"target": "T32, 371 kinases (kinase named in each endpoint) (Homo sapiens, UniProt Q9H2X6)", "T32 construct": "purchased Reaction Biology", "T32 sequence (Q9H2X6 whole entry)": "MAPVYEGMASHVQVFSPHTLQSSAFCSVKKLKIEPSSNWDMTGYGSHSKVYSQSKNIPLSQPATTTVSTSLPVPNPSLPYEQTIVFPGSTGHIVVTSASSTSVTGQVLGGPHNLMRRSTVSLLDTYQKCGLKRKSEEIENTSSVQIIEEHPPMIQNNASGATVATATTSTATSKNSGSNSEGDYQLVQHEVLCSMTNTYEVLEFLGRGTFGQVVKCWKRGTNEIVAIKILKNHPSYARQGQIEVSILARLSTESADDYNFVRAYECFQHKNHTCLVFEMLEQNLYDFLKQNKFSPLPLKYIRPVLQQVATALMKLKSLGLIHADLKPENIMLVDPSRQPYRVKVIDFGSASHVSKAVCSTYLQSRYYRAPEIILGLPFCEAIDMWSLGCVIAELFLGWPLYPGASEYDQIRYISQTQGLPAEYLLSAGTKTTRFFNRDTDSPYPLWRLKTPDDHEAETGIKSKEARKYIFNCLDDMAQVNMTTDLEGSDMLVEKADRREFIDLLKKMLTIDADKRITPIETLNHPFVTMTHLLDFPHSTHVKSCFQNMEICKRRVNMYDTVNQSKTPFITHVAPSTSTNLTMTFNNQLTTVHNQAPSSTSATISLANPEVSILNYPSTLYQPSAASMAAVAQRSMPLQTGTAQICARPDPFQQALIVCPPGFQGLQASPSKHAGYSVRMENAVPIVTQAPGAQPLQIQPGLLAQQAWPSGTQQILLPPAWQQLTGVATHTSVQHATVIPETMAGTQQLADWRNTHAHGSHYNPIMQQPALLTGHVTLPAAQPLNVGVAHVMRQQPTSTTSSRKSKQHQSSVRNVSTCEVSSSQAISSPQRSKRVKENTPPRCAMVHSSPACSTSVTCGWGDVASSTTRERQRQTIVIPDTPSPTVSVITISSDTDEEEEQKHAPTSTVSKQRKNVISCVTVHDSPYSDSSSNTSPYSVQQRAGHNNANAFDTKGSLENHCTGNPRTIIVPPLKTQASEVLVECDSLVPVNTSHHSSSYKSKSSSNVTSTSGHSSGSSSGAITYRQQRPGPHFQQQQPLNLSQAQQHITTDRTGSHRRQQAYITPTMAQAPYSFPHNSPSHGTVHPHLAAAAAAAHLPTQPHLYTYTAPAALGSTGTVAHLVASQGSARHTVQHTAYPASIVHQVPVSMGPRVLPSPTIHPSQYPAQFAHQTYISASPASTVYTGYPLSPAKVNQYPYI", "conditions": "HIPK2"}, "[33]": {"target": "T33, 371 kinases (kinase named in each endpoint) (Homo sapiens, UniProt Q9P1W9)", "T33 construct": "purchased Reaction Biology", "conditions": "PIM2"}, "[34]": {"target": "T34, 371 kinases (kinase named in each endpoint) (Homo sapiens, UniProt Q9UF33)", "T34 construct": "purchased Reaction Biology", "conditions": "EPHA6"}, "[35]": {"target": "T35, 371 kinases (kinase named in each endpoint) (Homo sapiens, UniProt Q9UK32)", "T35 construct": "purchased Reaction Biology", "conditions": "RSK4"}, "[36]": {"target": "T36, 371 kinases (kinase named in each endpoint) (Homo sapiens, UniProt Q9Y3S1)", "T36 construct": "purchased Reaction Biology", "conditions": "WNK2"}, "[37]": {"target": "T37, 371 kinases (kinase named in each endpoint) (Homo sapiens, UniProt Q9Y4K4)", "T37 construct": "purchased Reaction Biology", "conditions": "KHS/MAP4K5"}}, "data": [{"smiles": "O=C(O)c1cc(C(F)(F)F)ccc1NCCc1c[nH]c2cc(Br)ccc12", "note": "[Compound 5, 2-((2-(6-Bromo-1H-indol-3-yl)ethyl)amino)−5-(trifluoromethyl)benzoic Acid]", "values": [{"measurement": "activity at 10 µM", "setting": "[1]", "value": "104.4 ± 1", "unit": "%"}, {"measurement": "activity at 10 µM", "setting": "[2]", "value": "90 ± 2", "unit": "%"}, {"measurement": "activity at 10 µM", "setting": "[3]", "value": "88.1 ± 0.3", "unit": "%"}, {"measurement": "activity at 10 µM", "setting": "[4]", "value": "98.7 ± 0.5", "unit": "%"}, {"measurement": "activity at 10 µM", "setting": "[5]", "value": "86.4 ± 1.8", "unit": "%"}, {"measurement": "activity at 10 µM", "setting": "[6]", "value": "98.7 ± 0.5", "unit": "%"}, {"measurement": "activity at 10 µM", "setting": "[7]", "value": "93.4 ± 0.4", "unit": "%"}, {"measurement": "activity at 10 µM", "setting": "[8]", "value": "118 ± 3", "unit": "%"}, {"measurement": "activity at 10 µM", "setting": "[9]", "value": "101 ± 1.6", "unit": "%"}, {"measurement": "activity at 10 µM", "setting": "[10]", "value": "95.1 ± 1.6", "unit": "%"}, {"measurement": "activity at 10 µM", "setting": "[11]", "value": "92.7 ± 1.3", "unit": "%"}, {"measurement": "activity at 10 µM", "setting": "[12]", "value": "94.7 ± 0.1", "unit": "%"}, {"measurement": "activity at 10 µM", "setting": "[13]", "value": "91.7 ± 0.5", "unit": "%"}, {"measurement": "activity at 10 µM", "setting": "[14]", "value": "59.1 ± 0.1", "unit": "%"}, {"measurement": "activity at 10 µM", "setting": "[15]", "value": "95.5 ± 0.4", "unit": "%"}, {"measurement": "activity at 10 µM", "setting": "[16]", "value": "92 ± 0.4", "unit": "%"}, {"measurement": "activity at 10 µM", "setting": "[17]", "value": "121 ± 3", "unit": "%"}, {"measurement": "activity at 10 µM", "setting": "[18]", "value": "134 ± 0.4", "unit": "%"}, {"measurement": "activity at 10 µM", "setting": "[19]", "value": "62.2 ± 0.8", "unit": "%"}, {"measurement": "activity at 10 µM", "setting": "[20]", "value": "88 ± 0.7", "unit": "%"}, {"measurement": "activity at 10 µM", "setting": "[21]", "value": "83.1 ± 2.8", "unit": "%"}, {"measurement": "activity at 10 µM", "setting": "[22]", "value": "110 ± 1.7", "unit": "%"}, {"measurement": "activity at 10 µM", "setting": "[23]", "value": "64.9 ± 0.2", "unit": "%"}, {"measurement": "activity at 10 µM", "setting": "[24]", "value": "117 ± 3.3", "unit": "%"}, {"measurement": "activity at 10 µM", "setting": "[25]", "value": "34.9 ± 0.5", "unit": "%"}, {"measurement": "activity at 10 µM", "setting": "[26]", "value": "156 ± 1.8", "unit": "%"}, {"measurement": "activity at 10 µM", "setting": "[27]", "value": "79.9 ± 2.4", "unit": "%"}, {"measurement": "activity at 10 µM", "setting": "[28]", "value": "68.9 ± 0.2", "unit": "%"}, {"measurement": "activity at 10 µM", "setting": "[29]", "value": "95.2 ± 2.9", "unit": "%"}, {"measurement": "activity at 10 µM", "setting": "[30]", "value": "84.1 ± 0.4", "unit": "%"}, {"measurement": "activity at 10 µM", "setting": "[31]", "value": "83.3 ± 2.1", "unit": "%"}, {"measurement": "activity at 10 µM", "setting": "[32]", "value": "79.9 ± 0.7", "unit": "%"}, {"measurement": "activity at 10 µM", "setting": "[33]", "value": "92.4 ± 0.6", "unit": "%"}, {"measurement": "activity at 10 µM", "setting": "[34]", "value": "91.9 ± 1.1", "unit": "%"}, {"measurement": "activity at 10 µM", "setting": "[35]", "value": "91 ± 0.4", "unit": "%"}, {"measurement": "activity at 10 µM", "setting": "[36]", "value": "109.6 ± 0.2", "unit": "%"}, {"measurement": "activity at 10 µM", "setting": "[37]", "value": "72 ± 2.8", "unit": "%"}]}]}
